The text below walks through data of publication PMC10983001, “Development of Cytotoxic GW7604-Zeise’s Salt Conjugates as Multitarget Compounds with Selectivity for Estrogen Receptor- Positive Tumor Cells” (Journal of Medicinal Chemistry, 2024).

Series [1] has as its system nuclei of MCF-7 cells. As to the kind of experiment: Nuclear uptake (platinum by HR-CS-AAS), MCF-7. It is filed as cell-based, human. The following applies: MCF-7, 20 μM, 24 h; pmol complex/mg protein. The protocol: (§1) Fluorescence in the nuclei is not detectable. Therefore, the nuclei were analyzed for their platinum content using HR-CS-AAS.[25]
(§2) After thawing of the cell/nuclei pellets, they were resuspended in ultrapure water (Siemens LaboStar, Günzburg, Germany; 300 μL) and lyzed with a sonotrode (Bandelin Sonoplus, Berlin, Germany; parameters 20 s, 9 cycles, 80% power). Graphite furnace (GF) AAS was used to quantify the lysates concerning their content of platinum (λ = 265.9450 nm). For this purpose, a contrAA 700 High-Resolution-Continous Source AAS (Analytik Jena, Jena, Germany) was employed, while atomization took place by electrothermal heating of graphite tubes with an inserted platform (Analytik Jena, Jena, Germany). […] The spectrometer was monitored with the ASpect CS software, version 2.3.1.0 (Analytik Jena, Jena, Germany). For all runs, the mean integrated absorbance was determined after three injections of each standard or sample. […] Each cell/nuclei lysate was quantified concerning its protein content following the method of Bradford[71] in order to express the uptake as the amount of compound (pmol) in the lysate relative to its protein mass (mg). […] All standards and lysates were measured in duplicate. After incubating for 5 min at rt, the absorbance (λ = 595 nm) was read on a microplate reader (Tecan Safire 2, Männedorf, Switzerland). […]

Series [2] has as its system MCF-7 cells. As to the kind of experiment: Hormonal (agonistic) activity: growth stimulation. To be noted: MCF-7, low concentrations (<100 nM), data not shown. The class given is cell-based, human. The text has this:
However, both agonistic properties and SERD effects can be excluded.

Series [3] is described as follows: Stability in organic solutions (1H NMR). To be noted: for amount of free ligand: DMF-d7, rt. It is filed as physicochemical. The protocol: Furthermore, it needs to be clarified whether organic solvent molecules are capable of ligand exchange reactions at the PtCl3 unit and form corresponding reaction/degradation products of the GW7604-Alk-PtCl3 complexes. Therefore, ^1H NMR experiments were performed with noncoordinating [e.g., acetone-d6, methanol-d4] and coordinating [e.g., acetonitrile-d3 , DMF-d7, dimethyl sulfoxide-d6 (DMSO-d6)] solvents. It should further be assessed whether the solvents are suitable for preparing stock solutions for structural characterization or in vitro testing.
The solutions (concentrations of 4.5–5.0 mM) were stored in NMR tubes at room temperature (rt) after being purged with argon.

For series [4] the following is noted: 30 μM, DMEM + 10% FCS, 37 °C, dark.
Method: After protein precipitation with ice-cold methanol (MeOH), the compounds remaining in solution were analyzed by HPLC and electrospray ionization high-resolution mass spectrometry (ESI-HR-MS).
The solution was then incubated for 4 h at 37 °C in the dark. Proteins were precipitated upon addition of 33 mL of ice-cold MeOH, and the mixture was stored for 2 h at −20 °C. The supernatant was then separated by centrifugation (3000 rpm), collected, and dried by lyophilization. The lyophilizate was extracted three times with 5 mL of MeOH and finally dried under reduced pressure. The residue was taken up in 1 mL of HPLC-grade MeOH, and 30 μL thereof was analyzed by HPLC and ESI-HR-MS.
The test system of series [5] is nuclei of SKBr3 cells. As to the kind of experiment: Nuclear uptake (platinum by HR-CS-AAS), SKBr3. It is filed as cell-based, human. To be noted: SKBr3, 20 μM, 24 h. The protocol: as §1, §2

Each structure is given as a SMILES string. Bounds are passed on as bounds.

In the case of `CCC(=C(c1ccc(O)cc1)c1ccc(C=CC(=O)OCCC[CH]2[CH2][Pt-]2([Cl])([Cl])[Cl])cc1)c1ccccc1.[K+]` (mixture of isomers) [GW7604-Pent-PtCl3, Potassium trichlorido[η^2-(pent-4-en-1-yl (E)-3-(4-((E/Z)-1-(4-hydroxyphenyl)-2-phenylbut-1-en-1-yl)phenyl)acrylate)]platinate(II)], the entries for the “platinum content in the nuclei” value in series [1] and in series [5] were 145 pmol/mg and 96 pmol/mg, respectively. The “agonistic effect: stimulation of growth” value in series [2] is given as “neither stimulated the growth”. Also, the “amount of free ligand” value in series [3] (9 days) is “about 33%”; in series [3] (14 days) it was “about 40%”. Besides, the “stability in DMSO-d6” value in series [3] (DMSO-d6, measured after 5 min / immediately after dissolution) was “only signals of the free GW7604-Pent ligand”. For the same compound, the “time to complete degradation of the complex” value in series [3] (acetonitrile-d3, rt) is reported as no more than 23 days. The “complex that released the free ligand” value in series [3] (acetonitrile-d3, rt, 4 days) is listed as “about 25%”; in series [3] (acetonitrile-d3, rt, 9 days), “about 35%”. In addition, the “time to complete degradation in cell culture medium” value in series [4] was no more than 4 h.
